In the first assay the target is T1, mGlyT-1b (Mus musculus, UniProt P28571).
T1 construct: host or cells: Flp-in-CHO
T1 sequence (P28571 1-651 isoform P28571-2): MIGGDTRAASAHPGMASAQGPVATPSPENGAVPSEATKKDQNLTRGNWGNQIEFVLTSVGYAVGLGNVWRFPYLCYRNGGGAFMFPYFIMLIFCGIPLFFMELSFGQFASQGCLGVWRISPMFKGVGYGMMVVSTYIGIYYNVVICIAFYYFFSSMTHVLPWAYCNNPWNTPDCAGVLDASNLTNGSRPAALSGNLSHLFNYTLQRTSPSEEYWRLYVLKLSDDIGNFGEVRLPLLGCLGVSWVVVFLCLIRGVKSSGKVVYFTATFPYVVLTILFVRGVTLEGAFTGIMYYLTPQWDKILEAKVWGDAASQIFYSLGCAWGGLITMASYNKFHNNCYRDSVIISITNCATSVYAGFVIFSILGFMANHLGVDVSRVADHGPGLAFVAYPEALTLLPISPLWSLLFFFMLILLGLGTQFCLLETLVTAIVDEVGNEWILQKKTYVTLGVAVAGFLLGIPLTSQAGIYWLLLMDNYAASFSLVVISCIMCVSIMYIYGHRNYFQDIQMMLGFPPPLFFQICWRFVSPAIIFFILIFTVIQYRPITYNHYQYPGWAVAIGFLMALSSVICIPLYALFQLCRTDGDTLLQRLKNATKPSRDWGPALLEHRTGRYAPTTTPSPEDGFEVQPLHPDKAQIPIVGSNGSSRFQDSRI
Kind of assay: Glycine uptake inhibition assay (mGlyT-1b). In kind it is cell-based.
Details: not given
On the procedure:
DMEM complete medium: Nutrient mixture F-12 (Gibco Life-technologies), fetal bovine serum (FBS) 5%, (Gibco life technologies), Penicillin/Streptomycin 1% (Gibco life technologies), Hygromycin 0.6 mg/ml (Gibco life technologies), Glutamine 1 mM Gibco life technologies) Uptake buffer (UB): 150 mM NaCl, 10 mM Hepes-Tris, pH 7.4, 1 mM CaCl2, 2.5 mM KCl, 2.5 mM MgSO4, 10 mM (+) D-glucose. Flp-inTM-CHO (Invitrogen Cat n° R758-07) cells stably transfected with mGlyT1b cDNA. Glycine Uptake Inhibition […]) On day 1 mammalian cells, (Flp-inTM-CHO), transfected with […] cDNA, were plated at the density of 40,000 cells/well in complete F-12 medium, without hygromycin in 96-well culture plates. On day 2, the medium was aspirated and the cells were washed twice with uptake buffer (UB). The cells were then incubated for 20 min at 22° C. with either (i) no potential competitor, (ii) 10 mM non-radioactive glycine, (iii) a concentration of a potential inhibitor. A range of concentrations of the potential inhibitor was used to generate data for calculating the concentration of inhibitor resulting in 50% of the effect (e.g. […] The plates were incubated with gentle shaking, and the reaction was stopped by aspiration of the mixture and washing (three times) with ice-cold UB. The cells were lysed with scintillation liquid, shaken 3 hours and the radioactivity in the cells was counted using a scintillation counter.
`C[C@H](Oc1ccc(S(C)(=O)=O)cc1C(=O)N1CCC(COc2ccc(Cl)cc2)C1)C(F)(F)F` (mixture of isomers) [Example 29, rac-[3-(4-Chloro-phenoxymethyl)-pyrrolidin-1-yl]-[5-methanesulfonyl-2-((S)-2,2,2-trifluoro-1-methyl-ethoxy)-phenyl]-methanone]: inhibition was half-maximal at 0.2 µM (IC50). On the same count and under the same terms, then `C[C@H](Oc1ccc(S(C)(=O)=O)cc1C(=O)N1CCC(COc2ccc(C#N)cc2)C1)C(F)(F)F` (mixture of isomers) [Example 32, rac-4-{1-[5-Methanesulfonyl-2-((S)-2,2,2-trifluoro-1-methyl-ethoxy)-benzoyl]-pyrrolidin-3-ylmethoxy}-benzonitrile], with 0.21 µM.

Staying with this assay, now noted: [3H]-glycine uptake in Flp-in-CHO cells stably transfected with mGlyT1b cDNA; 20 min preincubation at 22° C.; read-out: IC50 (μM) at GlyT-1.
With `C[C@H](Oc1ccc(S(C)(=O)=O)cc1C(=O)N1CCC(Cc2ccc(C(F)(F)F)cc2)C1)C(F)(F)F` (mixture of isomers) [Example 11, rac-[5-Methanesulfonyl-2-((S)-2,2,2-trifluoro-1-methyl-ethoxy)-phenyl]-[3-(4-trifluoromethyl-benzyl)-pyrrolidin-1-yl]-methanone], the half-inhibitory concentration (IC50) amounted to 0.11 µM.

With `C[C@H](Oc1ccc(S(C)(=O)=O)cc1C(=O)N1CCC(COc2ccc(-c3ccccc3)cc2)C1)C(F)(F)F` (mixture of isomers) [Example 31, rac-[3-(Biphenyl-4-yloxymethyl)-pyrrolidin-1-yl]-[5-methanesulfonyl-2-((S)-2,2,2-trifluoro-1-methyl-ethoxy)-phenyl]-methanone], the IC50 worked out at 0.45 µM. Same read-out and setting: then `C[C@H](Oc1ccc(S(C)(=O)=O)cc1C(=O)N1CCC(COc2ccc(OC(F)(F)F)cc2)C1)C(F)(F)F` (mixture of isomers) [Example 35, rac-[5-Methanesulfonyl-2-((S)-2,2,2-trifluoro-1-methyl-ethoxy)-phenyl]-[3-(4-trifluoromethoxy-phenoxymethyl)-pyrrolidin-1-yl]-methanone], with 0.13 µM; and `CS(=O)(=O)c1ccc(-c2ccc(F)cc2)c(C(=O)N2CCC(Cc3ccc(C(F)(F)F)cc3)C2)c1` (racemic) [Example 14, rac-(4′-Fluoro-4-methanesulfonyl-biphenyl-2-yl)-[3-(4-trifluoromethyl-benzyl)-pyrrolidin-1-yl]-methanone], with 0.5 µM. The same measure, in the same setting: then `CS(=O)(=O)c1ccc(OCC2CCC2)c(C(=O)N2CCC(Cc3ccc(C(F)(F)F)cc3)C2)c1` (racemic) [Example 15, rac-(2-Cyclobutylmethoxy-5-methanesulfonyl-phenyl)-[3-(4-trifluoromethyl-benzyl)-pyrrolidin-1-yl]-methanone], with 0.24 µM; and `C[C@H](Oc1ccc(S(C)(=O)=O)cc1C(=O)N1CCC(COc2ccc(Cl)c(Cl)c2)C1)C(F)(F)F` (mixture of isomers) [Example 36, rac-[3-(3,4-Dichloro-phenoxymethyl)-pyrrolidin-1-yl]-[5-methanesulfonyl-2-((S)-2,2,2-trifluoro-1-methyl-ethoxy)-phenyl]-methanone], with 0.13 µM.

`COc1cccc(OCC2CCN(C(=O)c3cc(S(C)(=O)=O)ccc3O[C@@H](C)C(F)(F)F)C2)c1` (mixture of isomers) [Example 37, rac-[5-Methanesulfonyl-2-((S)-2,2,2-trifluoro-1-methyl-ethoxy)-phenyl]-[3-(3-methoxy-phenoxymethyl)-pyrrolidin-1-yl]-methanone]: the half-maximal inhibitory concentration (IC50) is 0.17 µM. Still for that read-out and setting: then `Cc1ccc(OCC2CCN(C(=O)c3cc(S(C)(=O)=O)ccc3O[C@@H](C)C(F)(F)F)C2)cc1` (mixture of isomers) [Example 30, rac-[5-Methanesulfonyl-2-((S)-2,2,2-trifluoro-1-methyl-ethoxy)-phenyl]-(3-p-tolyloxymethyl-pyrrolidin-1-yl)-methanone], with 0.27 µM; and `CS(=O)(=O)c1ccc(OC2CCCC2)c(C(=O)N2CCC(Cc3ccc(C(F)(F)F)cc3)C2)c1` (racemic) [Example 16, rac-(2-Cyclopentyloxy-5-methanesulfonyl-phenyl)-[3-(4-trifluoromethyl-benzyl)-pyrrolidin-1-yl]-methanone], with 0.32 µM; and `CS(=O)(=O)c1ccc(OCC(F)(F)C(F)(F)F)c(C(=O)N2CCC(Cc3ccc(C(F)(F)F)cc3)C2)c1` (racemic) [Example 13, rac-[5-Methanesulfonyl-2-(2,2,3,3,3-pentafluoro-propoxy)-phenyl]-[3-(4-trifluoromethyl-benzyl)-pyrrolidin-1-yl]-methanone], with 0.09 µM.

For the compound `C[C@H](Oc1ccc(S(C)(=O)=O)cc1C(=O)N1CCC(c2ccc(C(F)(F)F)cc2)C1)C(F)(F)F` (mixture of isomers) [Example 2, rac-[5-Methanesulfonyl-2-((S)-2,2,2-trifluoro-1-methyl-ethoxy)-phenyl]-[3-(4-trifluoromethyl-phenyl)-pyrrolidin-1-yl]-methanone], the concentration for half-maximal inhibition (IC50) stood at 0.22 µM. On to `C[C@H](Oc1ccc(S(C)(=O)=O)cc1C(=O)N1CCC(COc2ccc([N+](=O)[O-])cc2)C1)C(F)(F)F` (mixture of isomers) [Example 33, rac-[5-Methanesulfonyl-2-((S)-2,2,2-trifluoro-1-methyl-ethoxy)-phenyl]-[3-(4-nitro-phenoxymethyl)-pyrrolidin-1-yl]-methanone], for which the IC50 was 0.17 µM.

Broadly, the IC50 is the midpoint of a concentration-inhibition curve.

The values are drawn from US7951836B2, “Substituted phenyl methanone derivatives” (Hoffmann-La Roche Inc., priority 2006, dated 2011).
